{"source": "patent US20210228748A1", "about": "“IN VIVO STABLE HG-197(M) COMPOUNDS, METHOD FOR THE PRODUCTION THEREOF AND USE THEREOF IN NUCLEAR MEDICAL DIAGNOSTICS AND ENDORADIONUCLIDE THERAPY (THERANOSTICS)” (HELMHOLTZ-ZENTRUM DRESDEN - […].V., priority 2017, published 2021)", "key": {"[1]": {"test": "Stability test with excess of sulfur-containing competitors (radio-TLC)", "assay_type": "physicochemical", "description": "(§1) After pH-adjustment of the hydrochloric acid solution of [197(m)Hg]HgCl2(aq) (˜55 MBq, 20 μl, pH 1), by addition of 0.5 M HEPES buffer (pH 8, 200 μl), EtOH (200 μl), 6 M NaOH(aq) (11 μl), and 1 M NaOH(aq) (2 μl), a 1 mg/ml acetonitrile solution of 2 (12 μl, 14 nmol) was added. This solution (pH 6, 445 μl) was mixed at 50° C. for 1 h. The radiochemical yield of 3* was determined by radio-TLC (iTLC ACN+0.1% TFA, RP-18 TLC 9:1 ACN: H2O+0.1% TFA) as >95%. Purification and solvent change were carried out with a C8 cartridge (500 mg). After washing with water the major product was eluted with 7:3 EtOH:H2O from the cartridge. The last 2 fractions contained ˜16 MBq and ˜10 MBq respectively. The ˜16 MBq fraction had 3×200 μl extracted (˜4 MBq each). These fractions then had 1 competitor added each (1 mg/ml, 10 μl): tris(2-mercaptoethyl)ammonium oxalate, glutathione and Na2S. The mixtures were left at rt and checked by radio-TLC after 5 min, 1 h and 2 d, the only degradation observed was ˜4% after 2 d in the Na2S mixture. The ˜10 MBq fraction was divided into 2×500 μl. The first lot was used to test the stability of 3* in the highly aqueous solvent system necessary for biodistribution studies, this was diluted from 70% EtOH(aq) to ˜10% EtOH(aq) with brine (3.5 ml). […]"}, "[2]": {"test": "Human serum stability assay (SDS-PAGE autoradiograph)", "assay_type": "in vitro ADME", "details": "incubated with human serum 1 h at 37° C., pH 7.4, non-reducing SDS-PAGE", "description": "FIGS. 4A and 4B show stability testing for compound 3*, namely the analysis of ^197(m)Hg-incorporation into human serum proteins by SDS-PAGE (20% SDS-polyacrylamide gel autoradiograph (FIG. 4A), showing 197(m)Hg-labeled bands, and Coomassie staining (FIG. 4B), showing bands of human serum proteins; Lane 1: ^197(m)>Hg-radiolabeled bispidine 3*. Lane 2: ^197(m)Hg-radiolabeled EDTA. M: molecular-weight size marker).\nHuman serum “off the clot” (5 ml) stored at −20° C. was slowly thawed on ice and filtered using syringe filters with a pore size of 0.2 μm. Two aliquots of filtered serum (2×220 μl) were mixed with 1 M HEPES/NaOH buffer (pH 7.4, 2×45 μl). Separately, 2×200 μl solution (1:1 EtOH:H2O, pH 6) of 3* (˜4 MBq) and 197(m)HgCl2/EDTA (˜5 MBq, 10 μg EDTA) had 1 M HEPES/NaOH buffer (pH 8.0, 2×20 μl) added to increase solution pH to 7.4. Then 135 μl of each 197(m)Hg-radiolabeled sample was added to one of the previously prepared serum/buffer solutions (265 μl) and incubated for 1 h at 37° C. 50 μl aliquots were then taken and mixed with 50 μl of 2× Laemmli sample buffer (Bio-Rad Laboratories), N.B. no reducing agent was added and the samples were not heated. The mixtures were then analyzed by non-reducing SDS-PAGE with acrylamide concentrations of 5% in the stacking gel and 20% in the resolving gel. 2 μl of each sample were loaded into each gel well. […]"}, "[3]": {"test": "Stability in highly aqueous solvent system for biodistribution studies", "assay_type": "physicochemical", "details": "diluted from 70% EtOH(aq) to ~10% EtOH(aq) with brine", "description": "as §1"}, "[4]": {"test": "Biodistribution in healthy male Wistar rats", "assay_type": "in vivo", "text": "FIG. 5 show biodistribution of compound 3* in healthy male Wistar rats (^197(m)HgCl2: n=4, 3*: n=8; ˜300 kBq per animal; all other organs measured well below 1% ID/g)."}, "Volatility test": {"test": "Volatility test", "assay_type": "physicochemical", "details": "70% EtOH(aq), 50° C., dry nitrogen stream 1 h", "description": "as §1"}}, "note": "“Also recorded” adds a separate entry of the source."}
{"smiles": "CCCC[C@]1(O)C2(c3ccccc3)CN3Cc4cccc[c]4[Hg][c]4ccccc4CN(C2)C[C@]1(c1ccccc1)C3", "note": "[3*, 9-butyl-8,10-diphenyl-6,10:8,12-dimethanodibenzo[c,f][1,9]diaza[5]mercuracyclotetradecan-9-ol]", "values": [{"measurement": "degradation observed by radio-TLC", "setting": "[1]; Na2S competitor (1 mg/ml, 10 μl), rt, after 2 d", "value": "~4", "unit": "%"}, {"measurement": "chemical stability against sulfur-containing competitors", "setting": "[1]; excess of glutathione, tris(2-mercaptoethyl)ammonium oxalate and sodium sulfide", "value": "high chemical stability"}, {"measurement": "197(m)Hg release (demetallation) and binding to serum proteins", "setting": "[2]", "value": "there isn't any observable protein interaction; also recorded: neither 197(m)Hg release (demetallation) nor binding to serum proteins is detectable"}, {"measurement": "stability of the solution by radio-TLC", "setting": "[3]", "value": "good stability"}, {"measurement": "biodistribution, all other organs (not shown in FIG. 5)", "setting": "[4]; healthy male Wistar rats, ~300 kBq per animal", "value": "below 1 % ID/g"}, {"measurement": "demetallation and retention in the kidneys", "setting": "[4]; healthy rats, biodistribution and SPECT", "value": "no indication of demetallation and retention in the kidneys"}, {"measurement": "organ / renal clearance", "setting": "[4]; healthy rats, normal micturition during a 24 h period", "value": "good organ clearance; also recorded: good renal clearance"}, {"measurement": "loss of activity by evaporation (volatility)", "setting": "Volatility test", "value": "no observable loss by evaporation"}]}
